Measurements: patent US5891851A, “Antibiotic, feglymycin, processes for its preparation and its use” (Hoechst Aktiengesellschaft, priority 1996, dated 1999)
*1 amine or outer side, *2 acyl side, *3 side chain or, on linkers, in order; H or OH if unused. Where a SMILES comes first, the peptide text is derived from it. [ ]: non-standard residue; d: D form. X1 = O=C(C(N[*:1])c1cc(O)cc(O)c1)[*:2]; Hpg = N[CH](C(=O)O)c1ccc(O)cc1

Assays:
[1] = format: cell-based
From the text: The tolerability of feglymycin in both the active concentration and even in higher concetrations is good. Cytotoxic effects or other toxicities were not observed.

[2] = format: physicochemical
From the text: Stable in neutral and mildly alkaline medium, but unstable in strongly acidic or strongly alkaline solutions.

[3] = tested on: human immunodeficiency viruses; format: cell-based, human immunodeficiency virus
Procedure: The IC50 is less than 7 μg per ml. The inhibitory activity can be measured by light-microscopic observation of HIV-typical syncytia. In this connection, the reduction in syncytia formation is a measure of the activity of the agent, in this case of feglymycin. It is also possible, however, to determine the activity of feglymycin by measuring the amount of HIV particles in cell culture supernatants, e.g. by means of commercially available p24 antigen tests.

## CC(C)C(NC(=O)C(NC(=O)C(N)c1ccc(O)cc1)c1cc(O)cc(O)c1)C(=O)NC(C(=O)NC(C(=O)NC(C(=O)NC(C(=O)NC(C(=O)NC(C(=O)NC(C(=O)NC(C(=O)NC(Cc1ccccc1)C(=O)NC(CC(=O)O)C(=O)O)c1ccc(O)cc1)c1cc(O)cc(O)c1)C(C)C)c1cc(O)cc(O)c1)c1ccc(O)cc1)c1cc(O)cc(O)c1)c1ccc(O)cc1)c1cc(O)cc(O)c1 (stereo not drawn) [feglymycin] (H-[Hpg][X1]V[X1][Hpg][X1][Hpg][X1]V[X1][Hpg]FD-OH; configuration not given here)
[1]
  Cytotoxic effects or other toxicities: not observed
[2]
  Solubility: soluble in methanol, acetonitrile and water
[3]
  IC50, inhibitory activity on human immunodeficiency viruses: less than 7 μg per ml
